In PubChem BioAssay AID252 (DTP/NCI, 2004):
Inconclusive results and toxic doses are left out.

Test system: BDF1 mice, intracerebral L1210 leukemia, survival T/C
Test: NCI In Vivo Anticancer Drug Screen. Data for tumor model L1210 Leukemia (intracerebral) in B6D2F1 (BDF1) mice
Settings: endpoint: mean survival time, higher = longer survival
Procedure, shortened: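 Antitumour effect is judged in mice with transplanted tumour by comparing survival of treated (T) against vehicle-dosed (C) groups as T/C.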

CN(Cc1cnc2nc(N[Si](C)(C)C)nc(N[Si](C)(C)C)c2n1)c1ccc(C(=O)NC(CCC(=O)O[Si](C)(C)C)C(=O)O[Si](C)(C)C)cc1 (stereo not given)
T/C (dose: 1.0 mg/kg/injection, schedule: Q01DX009 (ip), vehicle: Klucel (hydroxypropylcellulose) (HPC)): 118 % of control | T/C (dose: 2.0 mg/kg/injection, schedule: Q01DX009 (ip), vehicle: saline): 173 % of control | T/C (dose: 4.0 mg/kg/injection, schedule: Q01DX009 (ip), vehicle: Klucel (hydroxypropylcellulose) (HPC)): 110 % of control | T/C (dose: 4.0 mg/kg/injection, schedule: Q01DX009 (ip), vehicle: saline): 93 % of control

COC12C(COC(N)=O)C3=C(C(=O)C(C)=C(N)C3=O)N1CC1C2N1C (stereo not given)
T/C (dose: 11.0 mg/kg/injection, schedule: Q01DX001 (ip), vehicle: carboxymethylcellulose (CMC)): 92 % of control | T/C (dose: 17.0 mg/kg/injection, schedule: Q01DX001 (ip), vehicle: carboxymethylcellulose (CMC)): 98 % of control | T/C (dose: 26.0 mg/kg/injection, schedule: Q01DX001 (ip), vehicle: carboxymethylcellulose (CMC)): 97 % of control

O=NN(CCCl)C(=O)NC(Cc1ccccc1)C(=O)O (stereo not given)
T/C (dose: 18.0 mg/kg/injection, schedule: Q01DX001 (ip), vehicle: gum acacia): 119 % of control | T/C (dose: 28.0 mg/kg/injection, schedule: Q01DX001 (ip), vehicle: gum acacia): 119 % of control | T/C (dose: 42.0 mg/kg/injection, schedule: Q01DX001 (ip), vehicle: gum acacia): 117 % of control | T/C (dose: 63.0 mg/kg/injection, schedule: Q01DX001 (ip), vehicle: gum acacia): 120 % of control | T/C (dose: 112.0 mg/kg/injection, schedule: Q01DX001 (ip), vehicle: gum acacia): 103 % of control

CCn1cnc2c(SC3CCCC3)ncnc21
T/C (dose: 30.0 mg/kg/injection, schedule: Q01DX015 (ip), vehicle: carboxymethylcellulose (CMC)): 118 % of control | T/C (dose: 62.0 mg/kg/injection, schedule: Q01DX015 (ip), vehicle: carboxymethylcellulose (CMC)): 124 % of control | T/C (dose: 62.0 mg/kg/injection, schedule: Q01DX Z (ip), vehicle: carboxymethylcellulose (CMC)): 118 % of control | T/C (dose: 125.0 mg/kg/injection, schedule: Q01DX001 (ip), vehicle: carboxymethylcellulose (CMC)): 106 % of control | T/C (dose: 125.0 mg/kg/injection, schedule: Q01DX015 (ip), vehicle: carboxymethylcellulose (CMC)): 123 % of control | T/C (dose: 200.0 mg/kg/injection, schedule: Q01DX009 (ip), vehicle: carboxymethylcellulose (CMC)): 103 % of control | T/C (dose: 250.0 mg/kg/injection, schedule: Q01DX001 (ip), vehicle: carboxymethylcellulose (CMC)): 112 % of control | T/C (dose: 250.0 mg/kg/injection, schedule: Q01DX Z (ip), vehicle: carboxymethylcellulose (CMC)): 164 % of control | T/C (dose: 375.0 mg/kg/injection, schedule: Q01DX015 (ip), vehicle: carboxymethylcellulose (CMC)): 169 % of control | T/C (dose: 400.0 mg/kg/injection, schedule: Q01DX009 (ip), vehicle: carboxymethylcellulose (CMC)): 200 % of control | T/C (dose: 500.0 mg/kg/injection, schedule: Q01DX001 (ip), vehicle: carboxymethylcellulose (CMC)): 108 % of control | T/C (dose: 500.0 mg/kg/injection, schedule: Q01DX Z (ip), vehicle: carboxymethylcellulose (CMC)): 98 % of control | T/C (dose: 1000.0 mg/kg/injection, schedule: Q01DX001 (ip), vehicle: carboxymethylcellulose (CMC)): 120 % of control

O=NN(CCCl)C(=O)NC1CCC(O)CC1 (stereo not given)
T/C (dose: 13.0 mg/kg/injection, schedule: Q01DX001 (ip), vehicle: saline with Tween-80): 152 % of control | T/C (dose: 13.0 mg/kg/injection, schedule: Q01DX001 (ip), vehicle: saline): 177 % of control | T/C (dose: 20.0 mg/kg/injection, schedule: Q01DX001 (ip), vehicle: saline with Tween-80): 418 % of control | T/C (dose: 26.0 mg/kg/injection, schedule: Q01DX001 (ip), vehicle: saline): 448 % of control | T/C (dose: 30.0 mg/kg/injection, schedule: Q01DX001 (ip), vehicle: saline with Tween-80): 479 % of control | T/C (dose: 40.0 mg/kg/injection, schedule: Q01DX001 (ip), vehicle: saline): 479 % of control | T/C (dose: 44.0 mg/kg/injection, schedule: Q01DX001 (ip), vehicle: saline with Tween-80): 286 % of control | T/C (dose: 60.0 mg/kg/injection, schedule: Q01DX001 (ip), vehicle: saline): 322 % of control | T/C (dose: 67.0 mg/kg/injection, schedule: Q01DX001 (ip), vehicle: saline with Tween-80): 96 % of control | T/C (dose: 90.0 mg/kg/injection, schedule: Q01DX001 (ip), vehicle: saline): 114 % of control
